# Laboratory results as given in patent US20140259191A1, “FISH ANESTHETIC AND METHOD” (AQUA-MOR TECHNOLOGIES LTD., priority 2011, published 2014).
# How the values were obtained:
# Assay type in all cases: in vivo
# Koi fish = assay: Anesthesia of Koi fish by linalool added to tank water
# Protocol: (§1) A one year old koi fish of body length 11 cm and which appeared to be healthy was placed in a 4 liter tank containing water at 25° C. and in which the water was circulated by means of aeration. A liquid a mixture containing 1 wt. % synthetic linalool (1 wt. % linalool, 5 wt. % 14R, 2 wt. % AF80 and 92 wt. % water) was added to the tank and manually mixed with the water so that the concentration of linalool in the water was 50 ppm. This was regarding as the starting time of the experiment; thereafter, observations were made regularly to determine the behavior of the fish in water. This continued until no response to external stimulation and complete loss of equilibrium were observed, at which point the fish was transferred to a recovery tank containing fresh water. The fish was placed near the air pump, and the time until the fish again swam and responded normally to external stimulation was recorded.
# (§2) The experiment of Example 1 was repeated, using a one year old Koi fish of 12 cm body length, and adding the linalool formulation to a linalool concentration in the water of 75 ppm instead of 50 ppm. After 2 minutes of exposure to linalool the fish appeared to be in slight stress. […] At 20 minutes the fish was removed to a recovery tank with clean water. Thereafter it recovered slowly and after 40 minutes was swimming around in the tank and appeared to have resumed normal activity.
# as §2, with “12.5” for “12”, “100” for “75”, “ppm.” for “ppm. After 2 minutes of exposure to linalool the fish appeared to be in slight stress.”, “6” for “20”, “30” for “40”
# To a four liter tank containing three one-year old Koi fish of respective weights 30 g, 29 g and 31 g and respective body lengths 11 cm, 12 cm and 12.5 cm in water at 21° C. and pH 7 was added a formulation containing 1% linalool. The formulation was added to the water to a linalool concentration of 50 ppm in the water. The fish became relaxed 6 minutes after addition of linalool and after 9 minutes were completely anesthetized. At 9 5 minutes the fish were removed to a recovery tank with fresh water. After 40 minutes in the recovery tank the fish resumed normal behavior.
# Guppy fish = assay: Anesthesia of guppy fish by linalool or Ho Wood oil added to tank water
# Protocol: as §1
# To a one liter tank containing five guppy fingerlings 21-30 days old of weight 0.010-0.014 g and body length 0.5 cm in water at 30° C. and pH 7 was added a formulation containing 92.5% linalool. The formulation was added to the water to a linalool concentration of 50 ppm in the water. The fish became relaxed 5 minutes after addition of linalool and after 7 minutes were completely anesthetized. At 10 minutes the fish were removed to a recovery tank with fresh water. After two minutes in the recovery tank the fish resumed normal behavior.
# The experiment of Example 21 was repeated, using four 10-month old Guppy fish of respective body lengths 3, 3.5, 4 and 3 cm, and adding the Ho Wood oil to a linalool concentration of 50 ppm in the water. […] At 14.5 minutes the fish were removed to a recovery tank with clean water. After two minutes in the recovery tank they swam around and appeared to have resumed normal activity.
# The experiment of Example 21 was repeated, using four 10-month old Guppy fish of respective body lengths 4, 3.5, 3.5 and 3 cm, and adding the Ho Wood oil to a linalool concentration in the water of 75 ppm instead 50 ppm. […]
# cyprinus carpio = assay: Three-hour sedation of carp with 30 ppm linalool
# Protocol: Three cyprinus carpio of 140 g average weight, each in a tank of 20 L water at 25° C., were exposed to linalool, added to each tank in a formulation containing 20 wt. % linalool, 5 wt. % Alkamuls 14/R (a non-ionic surfactant added as an emulsifier), 70 wt. % propylene glycol and 5 wt. % ethanol to a linalool concentration of 30 ppm in the water. Specimens were observed every 30 minutes after addition of linalool. […] After removal to a tank of untreated water, each of the fish returned to their initial state within five minutes.
# [1] = Example 1: Koi 11 cm, 50 ppm linalool in water, 25° C.
# [2] = Example 2: Koi 12 cm, 75 ppm linalool in water
# [3] = Example 3: Koi 12.5 cm, 100 ppm linalool in water
# [4] = Example 18: three Koi 29-31 g, 50 ppm linalool, 21° C., pH 7
# [5] = Example 17: five guppy fingerlings, 50 ppm linalool (formulation containing 92.5% linalool), 30° C., pH 7
smiles,measurement,setting,value
C=CC(C)(O)CCC=C(C)C (stereo not shown) [linalool],time of exposure until complete loss of equilibrium,Koi fish; [1],6.5 min
same,time of exposure until fish swam on its back,Koi fish; [1],8 min
same,time of exposure until no response to external stimulation,Koi fish; [1],9 min
same,time of exposure until partial loss of equilibrium,Koi fish; [1],5.5 min
same,time of exposure until slight stress,Koi fish; [1],2.5 min
same,time in recovery tank until normal activity resumed,"Koi fish; Example 1: Koi 11 cm, 50 ppm linalool, removed to clean water at 9.5 minutes",45 min
same,time of exposure until complete loss of equilibrium,Koi fish; [2],7 min
same,time of exposure until no response to external stimulation,Koi fish; [2],9 min
same,time of exposure until slight stress,Koi fish; [2],2 min
same,time in recovery tank until normal activity resumed,"Koi fish; Example 2: Koi 12 cm, 75 ppm linalool, removed to clean water at 20 minutes",40 min
same,time of exposure until complete loss of equilibrium,Koi fish; [3],4 min
same,time of exposure until no response to external stimulation,Koi fish; [3],5.5 min
same,time of exposure until partial loss of equilibrium,Koi fish; [3],2.5 min
same,time in recovery tank until normal activity resumed,"Koi fish; Example 3: Koi 12.5 cm, 100 ppm linalool, removed to clean water at 6 minutes",30 min
same,time in recovery tank until normal behavior resumed,"Koi fish; Example 18: Koi, 50 ppm linalool, 21° C., removed at 9 5 minutes",40 min
same,time after addition of linalool until fish became relaxed,Koi fish; [4],6 min
same,time until fish completely anesthetized,Koi fish; [4],9 min
same,time after addition of linalool until fish became relaxed,Guppy fish; [5],5 min
same,time until fish completely anesthetized,Guppy fish; [5],7 min
same,time in recovery tank until normal behavior resumed,"Guppy fish; Example 17: guppy fingerlings, 50 ppm linalool, removed at 10 minutes",two
same,time in untreated water until return to initial state,"cyprinus carpio; Example 28: carp 140 g, after three-hour exposure",five
same,handling state of the fish,"cyprinus carpio; Example 28: three carp 140 g, 25° C., at 30 minutes after exposure and for the duration of the three-hour exposure",easy to handle
